Results as given in patent US20260262643A1, “HERBICIDAL BENZOXAZINES” (FMC CORPORATION, priority 2022, published 2026).

Columns and labels:
barnyardgrass [1] = assay: Test C preemergence; format: in vivo, Echinochloa crusgalli; conditions: 0 to 100 scale (0 no effect, 100 complete control)
Method in brief: (§1)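 Seeds sown in loam soil–sand blend received a directed preemergence soil spray of test chemical in non-phytotoxic solvent with surfactant; postemergence plants (2–10 cm, one- to two-leaf stage) were sprayed with the same formulation. Greenhouse-held 10 days, then visually rated for injury versus untreated controls, 0 (no effect) to 100 (complete control).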

barnyardgrass [2] = assay: Test D flooded paddy test; format: in vivo, Echinochloa crus-galli; conditions: 250 g ai/ha, applied to paddy water, visual rating after 13 to 14 days, scale 0 to 100 (0 no effect, 100 complete control)
Procedure: (§2) Plant species in the flooded paddy test selected from barnyardgrass (Echinochloa crus-galli), ducksalad (Heteranthera limosa), rice (Oryza sativa), and sedge, umbrella (small-flower umbrella sedge, Cyperus difformis) were grown to the 2-leaf stage for testing. At time of treatment, test pots were flooded to 3 cm above the soil surface, treated by application of test compounds directly to the paddy water, and then maintained at that water depth for the duration of the test. Treated plants and controls were maintained in a greenhouse for 13 to 14 days, after which time all species were compared to controls and visually evaluated. Plant response ratings, summarized in Table D, are based on a scale of 0 to 100 where 0 is no effect and 100 is complete control. A dash (-) response means no test result.

pigweed, palmer [3] = assay: Test C preemergence; format: in vivo, Amaranthus palmeri; conditions: 0 to 100 scale (0 no effect, 100 complete control)
Method in brief: as §1

kochia [4] = assay: Test C postemergence; format: in vivo, Bassia scoparia; conditions: 10 days
Method in brief: as §1

corn [5] = assay: Test C postemergence; format: in vivo, Zea mays; conditions: 10 days
Method in brief: as §1

sedge, umbrella = assay: Test D flooded paddy test; format: in vivo, Cyperus difformis; conditions: 250 g ai/ha, applied to paddy water, visual rating after 13 to 14 days, scale 0 to 100 (0 no effect, 100 complete control)
Procedure: as §2

galium = assay: Test C postemergence; format: in vivo, Galium aparine; conditions: 10 days
Method in brief: as §1

horseweed = assay: Test C postemergence; format: in vivo, Erigeron canadensis; conditions: 10 days
Method in brief: as §1

soybean [6] = assay: Test C preemergence; format: in vivo, Glycine max; conditions: 0 to 100 scale (0 no effect, 100 complete control)
Method in brief: as §1

rice = assay: Test D flooded paddy test; format: in vivo, Oryza sativa; conditions: 250 g ai/ha, applied to paddy water, visual rating after 13 to 14 days, scale 0 to 100 (0 no effect, 100 complete control)
Procedure: as §2

blackgrass [7] = assay: Test C preemergence; format: in vivo, Alopecurus myosuroides; conditions: 0 to 100 scale (0 no effect, 100 complete control)
Method in brief: as §1

wheat [8] = assay: Test C postemergence; format: in vivo, Triticum aestivum; conditions: 10 days
Method in brief: as §1

ryegrass, Italian [9] = assay: Test C postemergence; format: in vivo, Lolium multiflorum; conditions: 10 days
Method in brief: as §1

soybean [10] = assay: Test C postemergence; format: in vivo, Glycine max; conditions: 10 days
Method in brief: as §1

ragweed [11] = assay: Test C postemergence; format: in vivo, Ambrosia artemisiifolia; conditions: 10 days
Method in brief: as §1

oat, wild [12] = assay: Test C postemergence; format: in vivo, Avena fatua; conditions: 10 days
Method in brief: as §1

kochia [13] = assay: Test C preemergence; format: in vivo, Bassia scoparia; conditions: 0 to 100 scale (0 no effect, 100 complete control)
Method in brief: as §1

oat, wild [14] = assay: Test C preemergence; format: in vivo, Avena fatua; conditions: 0 to 100 scale (0 no effect, 100 complete control)
Method in brief: as §1

pigweed, palmer [15] = assay: Test C postemergence; format: in vivo, Amaranthus palmeri; conditions: 10 days
Method in brief: as §1

ducksalad = assay: Test D flooded paddy test; format: in vivo, Heteranthera limosa; conditions: 250 g ai/ha, applied to paddy water, visual rating after 13 to 14 days, scale 0 to 100 (0 no effect, 100 complete control)
Procedure: as §2

ryegrass, Italian [16] = assay: Test C preemergence; format: in vivo, Lolium multiflorum; conditions: 0 to 100 scale (0 no effect, 100 complete control)
Method in brief: as §1

wheat [17] = assay: Test C preemergence; format: in vivo, Triticum aestivum; conditions: 0 to 100 scale (0 no effect, 100 complete control)
Method in brief: as §1

ragweed [18] = assay: Test C preemergence; format: in vivo, Ambrosia artemisiifolia; conditions: 0 to 100 scale (0 no effect, 100 complete control)
Method in brief: as §1

blackgrass [19] = assay: Test C postemergence; format: in vivo, Alopecurus myosuroides; conditions: 10 days
Method in brief: as §1

green foxtail = assay: Test C preemergence; format: in vivo, Setaria viridis; conditions: 0 to 100 scale (0 no effect, 100 complete control)
Method in brief: as §1

barnyardgrass [20] = assay: Test C postemergence; format: in vivo, Echinochloa crusgalli; conditions: 10 days
Method in brief: as §1

corn [21] = assay: Test C preemergence; format: in vivo, Zea mays; conditions: 0 to 100 scale (0 no effect, 100 complete control)
Method in brief: as §1

[22] = Preemergence, 500 g ai/ha, visual rating after 10 days
[23] = Test C, preemergence, 125 g ai/ha
[24] = 125 g ai/ha, postemergence, 0 to 100 scale, 0 no effect, 100 complete control
[25] = Postemergence, 500 g ai/ha, visual 0 to 100 scale (0 no effect, 100 complete control)

`COC[C@H]1CN(C(=O)c2cc(-n3cnc(C4CC4)n3)ccc2OC)c2cccc(Cl)c2O1` [Compound 235] was tested, and the “Plant response rating, Barnyardgrass” value (barnyardgrass [1]; [22]) was 90, the “Barnyardgrass plant response rating” value (barnyardgrass [1]; [23]) was 50 and the “Plant response rating, Barnyardgrass (Flood)” value (barnyardgrass [2]) was 10. The “Plant response rating, Pigweed, Palmer” value (pigweed, palmer [3]; [22]) was 100, the “Pigweed, Palmer plant response rating” value (pigweed, palmer [3]; [23]) was 90 and the “Plant response rating, Kochia” value (kochia [4]; [24]) was 90. For the same compound, the “Plant response rating, Kochia” value (kochia [4]; [25]) was 90, the “Plant response rating, Corn” value (corn [5]; [24]) was 50 and the “Plant response rating, Corn” value (corn [5]; [25]) was 90. The “Plant response rating, Sedge, Umbrella (Flood)” value (sedge, umbrella) was 90, the “Plant response rating, Galium” value (galium; [24]) was 100 and the “Plant response rating, Galium” value (galium; [25]) was 100. The “Plant response rating, Horseweed” value (horseweed; [24]) was 30, the “Plant response rating, Horseweed” value (horseweed; [25]) was 70 and the “Plant response rating, Soybean” value (soybean [6]; [22]) was 70. For the same compound, the “Soybean plant response rating” value (soybean [6]; [23]) was 60, the “Plant response rating, Rice (Flood)” value (rice) was 15 and the “Plant response rating, Blackgrass” value (blackgrass [7]; [22]) was 80. The “Blackgrass plant response rating” value (blackgrass [7]; [23]) was 50, the “Plant response rating, Wheat” value (wheat [8]; [24]) was 30 and the “Plant response rating, Wheat” value (wheat [8]; [25]) was 30. For the same compound, the “Plant response rating, Ryegrass, Italian” value (ryegrass, Italian [9]; [24]) was 70, the “Plant response rating, Ryegrass, Italian” value (ryegrass, Italian [9]; [25]) was 100 and the “Plant response rating, Soybean” value (soybean [10]; [24]) was 100. For the same compound, the “Plant response rating, Soybean” value (soybean [10]; [25]) was 100, the “Plant response rating, Ragweed” value (ragweed [11]; [24]) was 70 and the “Plant response rating, Ragweed” value (ragweed [11]; [25]) was 80. The “Plant response rating, Oat, Wild” value (oat, wild [12]; [24]) was 40, the “Plant response rating, Oat, Wild” value (oat, wild [12]; [25]) was 60 and the “Plant response rating, Kochia” value (kochia [13]; [22]) was 90. The “Kochia plant response rating” value (kochia [13]; [23]) was 80, the “Plant response rating, Oat, Wild” value (oat, wild [14]; [22]) was 80 and the “Oat, Wild plant response rating” value (oat, wild [14]; [23]) was 20. The “Plant response rating, Pigweed, Palmer” value (pigweed, palmer [15]; [24]) was 70, the “Plant response rating, Pigweed, Palmer” value (pigweed, palmer [15]; [25]) was 90 and the “Plant response rating, Ducksalad (Flood)” value (ducksalad) was 90. The “Plant response rating, Ryegrass, Italian” value (ryegrass, Italian [16]; [22]) was 90, the “Ryegrass, Italian plant response rating” value (ryegrass, Italian [16]; [23]) was 80 and the “Plant response rating, Wheat” value (wheat [17]; [22]) was 30. For the same compound, the “Wheat plant response rating” value (wheat [17]; [23]) was 30, the “Plant response rating, Ragweed” value (ragweed [18]; [22]) was 60 and the “Ragweed plant response rating” value (ragweed [18]; [23]) was 30. The “Plant response rating, Blackgrass” value (blackgrass [19]; [24]) was 70, the “Plant response rating, Blackgrass” value (blackgrass [19]; [25]) was 90 and the “Plant response rating, Foxtail, Green” value (green foxtail; [22]) was 100. For the same compound, the “Foxtail, Green plant response rating” value (green foxtail; [23]) was 100, the “Plant response rating, Barnyardgrass” value (barnyardgrass [20]; [24]) was 90 and the “Plant response rating, Barnyardgrass” value (barnyardgrass [20]; [25]) was 90. For the same compound, the “Plant response rating, Corn” value (corn [21]; [22]) was 0 and the “Corn plant response rating” value (corn [21]; [23]) was 20.
